According to patent US20250041175A1, “COMPOSITION FOR SMOOTHING THE SKIN AND/OR THE LIPS” (L V M H RECHERCHE, priority 2021, published 2025):

Assay: Penetration of polyglycerols into the layers of the skin, 7T-MALDI-FT-ICR mass spectrometry imaging (MSI)
Type: in vitro ADME
Details: sections of human skin, preliminary study

penetration speed of polyglycerols	Substance	depth of penetration at the surface layers of the skin (epidermis and superficial dermis)
	Polyglycerol-5	penetrate less deeply than polyglycerol-3 or polyglycerol-4
penetrates rapidly	polyglycerol-3	reaches the superficial dermis very quickly
penetrates more quickly	polyglycerol-4	stationed in the superficial dermis
